Source: the NIST ThermoML archive (doi:10.1016/j.tca.2014.11.028)
Numbers after ± are expanded uncertainties.

What was measured:
[1] = xn = mol fraction of the nth substance listed; details: 101 kPa, Liquid, Vibrating tube method
[2] = 101 kPa, Liquid, Vibrating tube method

O=C(O)CC(=O)O [propanedioic acid] + C[N+](C)(C)CCO.[Cl-]
[1], x2 = 0.3333
Details | mass density [kg/m3]
283.15 K | 1191.5 ± 1.1
293.15 K | 1185.1 ± 1.1
303.15 K | 1178.6 ± 1.1
313.15 K | 1172.3 ± 1.1
323.15 K | 1166 ± 1.1
333.15 K | 1160.3 ± 1.1
343.15 K | 1154 ± 1.1
353.15 K | 1146.6 ± 1.1
363.15 K | 1138.8 ± 1.1

C[N+](C)(C)CCO.[Cl-] [choline chloride] + OCCO
[1], x1 = 0.3333
Details | mass density [kg/m3]
283.15 K | 1122.9 ± 1.1
293.15 K | 1117.1 ± 1.1
303.15 K | 1111.4 ± 1.1
313.15 K | 1105.7 ± 1.1
323.15 K | 1100.1 ± 1.1
333.15 K | 1094.7 ± 1.1
343.15 K | 1088.7 ± 1.1
353.15 K | 1081.9 ± 1.1
363.15 K | 1074.4 ± 1.1

O [water]
[2]
Details | mass density [kg/m3]
283.15 K | 999.7 ± 1
323.15 K | 988 ± 1
333.15 K | 983.2 ± 1
343.15 K | 977.8 ± 1
353.15 K | 971.7 ± 1
363.15 K | 965 ± 1
